Like-named read-outs stand apart in the source and are kept apart here.

Data on five molecules can be found in US20020058295A1, “Method of screening candidate compounds for susceptibility to oxidative metabolism” (priority 1998, published 2002).

The target of data set [1] is T1, CYP3A4 (Homo sapiens, UniProt P08684). In words: DCF formation during CYP3A4-mediated metabolism of substrates (CYP3A4OR, DCFH-DA, NADPH). On the procedure: A fluorogenic probe 2′, 7′-dichlorodihydrofluorescin-diacetate (DCFH-DA) was added to a CYP-mediated reaction mixture containing a substrate, isoenzyme, and NADPH in Tris buffer (50 mM, pH 7.4). The substrate comprised testosterone. Metabolism of the substrate was examined by measurement of formation of the resulting metabolite (prior art method) and/or 2′, 7′-dichlorofluroescein (DCF; method in accordance with the present invention) which was converted from the DCFH-DA in the presence of the ROS produced by CYP-mediated reactions. Dextromethorphan and benzyloxyresorufin served as two additional substrates, and phenacetine (not a CYP3A4 substrate) as a negative control for CYP3A4 to test whether the method of the present invention could differentiate substrates with different metabolic rates or substrates from non-substrates.
T1 sequence (P08684 whole entry): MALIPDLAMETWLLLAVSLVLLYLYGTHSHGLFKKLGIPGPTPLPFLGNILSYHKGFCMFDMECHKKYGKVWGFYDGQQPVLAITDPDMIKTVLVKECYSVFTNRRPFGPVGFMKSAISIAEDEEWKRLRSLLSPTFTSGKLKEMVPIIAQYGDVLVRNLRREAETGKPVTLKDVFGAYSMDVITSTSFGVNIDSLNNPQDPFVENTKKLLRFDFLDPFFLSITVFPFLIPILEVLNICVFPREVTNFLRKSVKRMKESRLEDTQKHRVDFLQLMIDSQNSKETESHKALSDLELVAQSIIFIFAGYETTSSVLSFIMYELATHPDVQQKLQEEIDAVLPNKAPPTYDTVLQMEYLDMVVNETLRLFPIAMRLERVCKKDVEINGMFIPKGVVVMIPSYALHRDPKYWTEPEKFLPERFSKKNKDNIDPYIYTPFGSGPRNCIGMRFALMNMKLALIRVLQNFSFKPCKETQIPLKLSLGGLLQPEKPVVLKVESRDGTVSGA
Initial studies were conducted to examine whether DCF was formed during CYP-mediated oxidation using testosterone hydroxylation by CYP3A4OR. A reaction mixture (total 2 ml) comprising DCFH-DA (5.36 μM), CYP3A4OR (0.5 mg/ml) and testosterone (50 μM) in Tris buffer (50 mM, pH 7.4) was prepared. The reaction was initiated by adding NADPH (0.5 mM) and allowed to proceed at room temperature. The fluorescent spectra (emission and excitation) of DCF formed from the incubation was determined using LS50B Luminescence Spectrometer (Perkin-Elmer, Norwalk, Conn.). The spectra were compared with that of standard DCF in Tris buffer (50 mM, pH 7.4). An incubation mixture that contained all the components as described previously except for DCFH-DA served as a control.
(§1) Metabolism—After obtaining the maximal excitation and emission wavelengths of DCF under experimental conditions, the fluorescent signals at the maximal excitation and emission wavelengths were determined for incubation reactions that contained 12.5, 25, and 50 μM testosterone to test whether DCF formation was dependent on testosterone concentrations. The incubation conditions were the same as those described above. The formation of DCF at 10 min post addition of NADPH was calculated based on the standard curve of DCF. The standard curve covered DCF concentrations ranging from 0.05 to 50 nM. In parallel, DCF formation was determined with incubation reactions that were devoid of any of NADPH, CYP3A4 or testosterone.
DCFH-DA (1, 2.5 or 5 μM) was incubated with CYP3A4OR (0.5 mg/ml protein), testosterone (33 μM), and NADPH (1 mM) in Tris buffer. DCF concentration was measured at 5, 10, 20 and 30 min. The effect of NADPH concentration on DCF formation at 20 and 30 min was examined with incubations containing NADPH (0.5, 1 or 2 mM), testosterone (33 μM), and DCFH-DA (2.5 μM).
DCFH-DA (2.5 ,μM) was incubated with testosterone (5-40 4 μM), CYP3A4OR (0.5 mg/ml protein) and NADPH (1 mM) in Tris buffer. The total incubation volume was 1 ml. The formation of DCF was measured at 10 and 20 min post addition of NADPH. Triplicate incubations were performed at each concentration. A Michaelis-Menten function was used to fit to DCF formation rate vs. testosterone concentration data to obtain estimates of the relevant kinetic parameters using the nonlinear least-squares regression method (Winnonlin Scientific Consulting Co., Apex, N.C.). Parallel experiments were conducted to obtain the kinetic parameters based on measurement of 6β-OH testosterone, a specific CYP3A4-mediated metabolite of testosterone, with the HPLC-UV method. The concentration range of testosterone used for the HPLC-UV method was 10 to 75 μM.
Dextromethorphan (2-100 μM), benzyloxyresorufin (5-100 μM), or phenacetin (48 μM) was incubated with CYP3A4OR (0.5 or 1 mg/ml), DCFH-DA (2.5 μM) and NADPH (1 mM) in Tris buffer. In the case of benzyloxyresorufin, pluronic F-68 (2%, 5 μl) was added to the reaction mixture (Crespi et al., Ana. Biochem. 248:188-190). DCF formation was measured at timed intervals.

In data set [2] the target is T1, CYP3A4. Particulars: Crespi et al., Anal. Biochem. 248:188-190 (1997); cited from earlier work.
For data set [3], the target named is T1, CYP3A4. In words: HPLC monitoring of potential phenacetin metabolites after incubation with CYP3A4OR. The settings on record: phenacetin 92 μM; CYP3A4OR 0.5 or 1 mg/ml; NADPH 1 mM; 10 or 30 min. The format is in vitro ADME. Further details: Glaxo Wellcome Inc. (gift).
Data set [4] deals with T1, CYP3A4. In words: 6β-OH testosterone formation during CYP3A4-mediated testosterone metabolism, HPLC-UV method. Particulars: recombinant CYP3A4OR. How it is done:
as §1
DCFH-DA (2.5 ,μM) was incubated with testosterone (5-40 4 μM), CYP3A4OR (0.5 mg/ml protein) and NADPH (1 mM) in Tris buffer. The total incubation volume was 1 ml. The formation of DCF was measured at 10 and 20 min post addition of NADPH. Triplicate incubations were performed at each concentration. A Michaelis-Menten function was used to fit to DCF formation rate vs. testosterone concentration data to obtain estimates of the relevant kinetic parameters using the nonlinear least-squares regression method (Winnonlin Scientific Consulting Co., Apex, N.C.). […]

Another data set addresses T2, CYP1A2 (Homo sapiens, UniProt P05177).
T2 sequence (P05177 1-516): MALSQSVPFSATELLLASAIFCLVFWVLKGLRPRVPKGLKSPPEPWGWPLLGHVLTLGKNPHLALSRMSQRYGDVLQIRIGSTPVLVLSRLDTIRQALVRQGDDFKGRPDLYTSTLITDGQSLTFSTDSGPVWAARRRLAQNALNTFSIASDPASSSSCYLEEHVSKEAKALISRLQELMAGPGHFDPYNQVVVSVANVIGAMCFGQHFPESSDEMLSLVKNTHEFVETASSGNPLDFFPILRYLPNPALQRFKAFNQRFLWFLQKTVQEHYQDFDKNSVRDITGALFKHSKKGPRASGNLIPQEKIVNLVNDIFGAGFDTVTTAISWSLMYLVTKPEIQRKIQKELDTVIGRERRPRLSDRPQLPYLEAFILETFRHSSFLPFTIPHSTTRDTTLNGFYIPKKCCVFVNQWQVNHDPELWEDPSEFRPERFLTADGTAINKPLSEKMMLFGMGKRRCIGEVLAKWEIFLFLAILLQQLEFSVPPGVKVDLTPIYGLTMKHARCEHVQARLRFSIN
The settings on record: 5 min.

Substrate in data set [5]: CCOc1ccc2nc3ccc(=O)cc-3oc2c1
Description: DCF formation during CYP1A2-mediated metabolism of ethoxyresorufin (CYP1A2 SUPERSOME). In kind it is in vitro ADME, human. Particulars: other: CYP1A2 SUPERSOME 90 μg/ml; DCFH-DA 5 μM; 15 min. On the procedure: (§2) Initial experiments were conducted to examine ethoxyresorufin concentration-dependent formation of DCF. Ethoxyresorufin (0.5, 5, 50 μM) was incubated with CYP1A2 SUPERSOME™ (sold under this trademark by Gentest Corp., Woburn, Mass.) (90 μg/ml protein), DCFH-DA (5 μM) and NADPH (1 mM). Formation of resorufin and DCF for the sample was measured at 8 and 10 min, respectively. The kinetic parameters then were obtained by incubating ethoxyresorufin (0.5-2.5 μM) with CYP1A2 SUPERSOME™ (90 μg/ml protein), DCFH-DA (5 μM), and NADPH (1 mM) for 5 min for measurement of resorufin formation and 15 min for measurement of DCF formation. Formation of DCF and resorufin was determined by fluorescence spectrophotometry. All experiments were performed in triplicate unless otherwise indicated.

Substrate in data set [6]: CCOc1ccc2nc3ccc(=O)cc-3oc2c1
In words: Resorufin formation during CYP1A2-mediated metabolism of ethoxyresorufin (fluorescence spectrophotometry). The format is in vitro ADME, human. The settings on record: other: CYP1A2 SUPERSOME 90 μg/ml; 5 min. On the procedure: Resorufin, a common metabolite of ethoxyresorufin by CYP1A2 and of benzyloxyresorufin by CYP3A4, was measured by fluorescence spectrophotometry as described above for DCF, with excitation and emission wavelength at 570 and 583 nm, respectively.
as §2

[7] abbreviates: read-out: Apparent Km by measurement of DCF formation, CYP3A4OR, DCFH-DA 2.5 μM, NADPH 1 mM, Michaelis-Menten fit.

The Km is the substrate concentration at which the rate is half of its maximum. Consider `O=c1ccc2nc3ccc(OCc4ccccc4)cc3oc-2c1` [Benzyloxyresorufin, 7-benzyloxyresorufin], for which, at CYP3A4 [1] (CYP3A4OR, DCFH-DA 2.5 μM, NADPH 1 mM, Michaelis-Menten fit), the “Apparent Vmax by measurement of DCF formation” value was determined as 1.17 ± 0.14 pmol DCF/min/mg pr. Moreover, on CYP3A4 [1] (setting [7]), the Michaelis constant (Km) stood at 3.79 ± 2.34 µM. The “Vmax for benzyloxyresorufin by CYP3A4” value at CYP3A4 [2] is 0.31 min⁻¹.

Consider `CCOc1ccc(NC(C)=O)cc1` [Phenacetin, N-[4-ethoxyphenyl] acetamide], for which, at CYP3A4 [1] (human, 48 μM, pH 7.4), the “DCF formation from potential metabolism by CYP3A4 (in words)” value is “^aPhenacetin was not significantly metabolized by CYP3A4, and DCF formation was not sufficiently high to allow measurement”. Moreover, the “metabolites found by prior art HPLC methods” value on CYP3A4 [3] is on record as “no detectable metabolites”.

`C[C@]12CC[C@H]3[C@@H](CCC4=CC(=O)CC[C@@]43C)[C@@H]1CC[C@@H]2O` [Testosterone]: the Km is 11.9 µM at CYP3A4 [1] (human, pH 7.4, Apparent Km by measurement of DCF formation, CYP3A4OR, DCFH-DA 2.5 μM, NADPH 1 mM, Michaelis-Menten fit); 12 ± 3.58 µM at CYP3A4 [1] (setting [7]); 43.4 µM on CYP3A4 [4]. Besides, the “Km by DCF measurement lower than Km by 6β-OH testosterone measurement” value on CYP3A4 [1] (ratio of the two Km values) is recorded as “approximately 3.5 fold”.

For the molecule `Cc1nc2c([nH]1)c(=O)n(C)c(=O)n2Cc1ccco1` [furafylline], the DCF formation is reported as 83.9 ±10.2 % of the control at CYP1A2 (1 μM) and 73.9±7.0 % of the control on CYP1A2 (10 μM).

B1: CYP1A2 (Homo sapiens) (protein)
chain: T2 sequence (P05177 1-516)
notes: purchased Gentest Corp. (Woburn, Mass.)
With B1, the figures for the Michaelis-Menten constant (Km) in data set [5] and in data set [6] were 3.46 ± 1.07 µM and 4.89 ± 1.71 µM, respectively.
